The results in this text go back to patent US8288410B2, “3-substituted quinolinium and 7H-indolo[2,3-c]quinolinium salts as new antiinfectives” (Florida Agricultural and Mechanical University, priority 2008, dated 2012).

Each structure is given as a SMILES string.

Data set [1] relates to Candida albicans ATTC 90028. The data set can be described thus: Antifungal susceptibility testing, Candida albicans. Type of data set: cell-based. As to conditions: Table 1. As to the method: (§1) Using standard susceptibility tests, the compounds of the invention were determined to be active against MRSA, C. neoformans and several other bacteria, fungi and protozoa. More specifically, the antibacterial and antifungal testing was carried out in the following manner. Cryptococcus neoformans ATCC 90113 and MRSA were obtained from the American Type Culture Collection (Manassas. Va.). Several others including Candida albicans ATTC 90028, Aspergillus fumigatus ATCC 90906 and Mycobacterium intracellulare (M. intracellulare) ATCC 23086 were also procured. Susceptibility testing was performed using a modified version of the National Committee for Clinical Laboratory Standards method. M. intracellulare was tested using a modified method of Franzblau, et al., J. Clin. Microbiol., 1998, 36, 362-366. DMSO solutions of samples were serially diluted in saline, and transferred in duplicate to 96 well microplates. Microbial suspensions were diluted in the broth to afford desired colony forming units/mL according to the 0.5 McFarland Standard [C. Albicans: either Saboraud Dextrose broth (SDB) or RPMI 1640, C. neoformans: SDB, A fumigatus: either YM broth (for MICS) or RPMI-1640+5% Alamar Blue.] After adding microbial cultures to the sampled afforded a final volume of 200 μL and final test concentration starting with 20 μg/mL, plates were read prior to and after final incubation using either fluorescence at 544ex/590em (M intracellulare, A. fumigatus) using the Polarstar galaxy reader (Biotek Instruments, Vermont). Growth (saline only), solvent and blank (media only) controls were included on each test plate. Drug controls [Ciprofloxacin (ICN Biomedicals, Ohio) for bacteria and Amphotericin B (ICN Biomedicals, Ohio) for fungi] were included in each assay. Percent growth was calculated and plotted versus test concentration to afford IC50 (sample concentration that affords 50% inhibition or growth of the organism). The minimum inhibitory concentration (MIC) was determined by visually inspecting the plate, and is defined as the lowest test concentration that allows no detectable growth (for Almar Blue assays, no color change from blue to pink).

Data set [2] concerns Aspergillus fumigatus ATCC 90906. The data set can be described thus: Antifungal susceptibility testing, Aspergillus fumigatus. The data set is classed as cell-based. As to conditions: Table 1; Aspergillus fumigatus. As to the method:
as §1

For data set [3], the system named is Cryptococcus neoformans ATCC 90113. The data set can be described thus: Antifungal susceptibility testing, Cryptococcus neoformans. Type of data set: cell-based. As to conditions: Table 1. As to the method:
as §1

For another data set, the system named is MRSA. The data set can be described thus: Antibacterial susceptibility testing, MRSA. As to conditions: Table 1. The data set is classed as cell-based, methicillin resistant Staphylococcus aureus. The method, then:
as §1

On to `Clc1ccccc1Sc1cc2ccccc2[n+](CCCCCc2ccccc2)c1.[I-]` [XYZ-III-74], for which, in data set [1], the “Ca IC50” value is listed as “— ((-) = >20 μg/mL)”, the “Ca MFC” value is recorded as “— ((-) = >20 μg/mL)” and the “Ca MIC” value is “— ((-) = >20 μg/mL)”. In data set [2], the “A fu IC50” value was 0.70 µg/mL, the “A fu MFC” value is given as “— ((-) = >20 μg/mL)” and the “A fu MIC” value stood at 2.5 µg/mL. In data set [3], the “Cn IC50” value came to 2.0 µg/mL, the “Cn MFC” value is 20 µg/mL and the “Cn MIC” value came out at 5.0 µg/mL. Moreover, in the data set on MRSA, the “MRS IC50” value is 1.0 µg/mL, the “MRS MFC” value came to 10 µg/mL and the “MRS MIC” value is 2.5 µg/mL.
Take `[I-].c1ccc(CCCCC[n+]2cc(Oc3ccccc3)cc3ccccc32)cc1` [XYZ-III-83]: in data set [1], the “Ca IC50” value is recorded as “— ((-) = >20 μg/mL)”, the “Ca MFC” value is listed as “— ((-) = >20 μg/mL)” and the “Ca MIC” value is reported as “— ((-) = >20 μg/mL)”. In data set [2], the “A fu IC50” value came out at 2.0 µg/mL, the “A fu MFC” value was “— ((-) = >20 μg/mL)” and the “A fu MIC” value was “— ((-) = >20 μg/mL)”. Moreover, in data set [3], the “Cn IC50” value is reported as “— ((-) = >20 μg/mL)”, the “Cn MFC” value is on record as “— ((-) = >20 μg/mL)” and the “Cn MIC” value is “— ((-) = >20 μg/mL)”. Further, in the data set on MRSA, the “MRS IC50” value was 15 µg/mL, the “MRS MFC” value was “— ((-) = >20 μg/mL)” and the “MRS MIC” value turned out to be 20 µg/mL.
For the molecule `Brc1ccccc1Sc1cc2ccccc2[n+](CCCCCc2ccccc2)c1.[I-]` [XYZ-III-85], in data set [1], the “Ca IC50” value is 20 µg/mL, the “Ca MFC” value is reported as “— ((-) = >20 μg/mL)” and the “Ca MIC” value is “— ((-) = >20 μg/mL)”. Further, in data set [2], the “A fu IC50” value amounted to 0.50 µg/mL, the “A fu MFC” value is reported as “— ((-) = >20 μg/mL)” and the “A fu MIC” value is 5.0 µg/mL. Also, in data set [3], the “Cn IC50” value was 1.5 µg/mL, the “Cn MFC” value is 10 µg/mL and the “Cn MIC” value stood at 5.0 µg/mL. For the same molecule, in the data set on MRSA, the “MRS IC50” value came to 0.95 µg/mL, the “MRS MFC” value came out at 10 µg/mL and the “MRS MIC” value was determined as 2.5 µg/mL.
Consider `Brc1cccc(Sc2cc3ccccc3[n+](CCCCCc3ccccc3)c2)c1.[I-]` [XYZ-III-87], for which, in data set [1], the “Ca IC50” value was “— ((-) = >20 μg/mL)”, the “Ca MFC” value was “— ((-) = >20 μg/mL)” and the “Ca MIC” value was “— ((-) = >20 μg/mL)”. In addition, in data set [2], the “A fu IC50” value is 3.0 µg/mL, the “A fu MFC” value is recorded as “— ((-) = >20 μg/mL)” and the “A fu MIC” value was determined as 10 µg/mL. In addition, in data set [3], the “Cn IC50” value was found to be 2.0 µg/mL, the “Cn MFC” value worked out at 20 µg/mL and the “Cn MIC” value came to 5.0 µg/mL. In addition, in the data set on MRSA, the “MRS IC50” value was 2.0 µg/mL, the “MRS MFC” value came to 20 µg/mL and the “MRS MIC” value was determined as 5.0 µg/mL.
As for `Brc1ccc(Sc2cc3ccccc3[n+](CCCCCc3ccccc3)c2)cc1.[I-]` [XYZ-III-89], in data set [1], the “Ca IC50” value amounted to 15 µg/mL, the “Ca MFC” value is reported as “— ((-) = >20 μg/mL)” and the “Ca MIC” value is on record as “— ((-) = >20 μg/mL)”. In addition, in data set [2], the “A fu IC50” value came to 1.5 µg/mL, the “A fu MFC” value was “— ((-) = >20 μg/mL)” and the “A fu MIC” value amounted to 2.5 µg/mL. Also, in data set [3], the “Cn IC50” value was determined as 1.0 µg/mL, the “Cn MFC” value is 10 µg/mL and the “Cn MIC” value was determined as 2.5 µg/mL. In addition, in the data set on MRSA, the “MRS IC50” value was determined as 1.5 µg/mL, the “MRS MFC” value is 10 µg/mL and the “MRS MIC” value is 2.5 µg/mL.
Regarding `COc1ccccc1Sc1cc2ccccc2[n+](CCCCCc2ccccc2)c1.[I-]` [XYZ-IV-18], in data set [1], the “Ca IC50” value amounted to 3.0 µg/mL, the “Ca MFC” value is given as “— ((-) = >20 μg/mL)” and the “Ca MIC” value stood at 10 µg/mL. For the same molecule, in data set [2], the “A fu IC50” value is 0.09 µg/mL, the “A fu MFC” value was 10 µg/mL and the “A fu MIC” value was determined as 1.3 µg/mL. In data set [3], the “Cn IC50” value is 0.85 µg/mL, the “Cn MFC” value is 5.0 µg/mL and the “Cn MIC” value came out at 2.5 µg/mL. Moreover, in the data set with MRSA, the “MRS IC50” value amounted to 0.25 µg/mL, the “MRS MFC” value came to 5.0 µg/mL and the “MRS MIC” value amounted to 0.63 µg/mL.
